Experimental findings from EPA's ToxValDB 9.5 (doi:10.2903/j.efsa.2014.3677) are described below.

Each structure is given as a SMILES string. Converted amounts (≈) assume the structure as drawn. “And” between values parts separate entries of the source, which are not always exact repeats. Equal entries are not always repeated.

The subject of one series is Pimephales promelas. As to conditions: chronic/long-term; duration: 300 days.
In the next series the test system is Leuciscus idus. Conditions: acute; duration: 96 hours; mortality.
For the next series, the system named is Rattus norvegicus. As to conditions: reproduction developmental; body weight.
The subject of the next series is Neomysis kadiakensis. Conditions: chronic/long-term; duration: 28 days.
In a further series the test system is Colinus virginianus. Conditions: acute; oral; diet.
The test system of the next series is Apis mellifera. Conditions: acute, mortality.
Another series relates to Canidae. As to conditions: chronic; duration: 1 years; oral; Dog Other; clinical signs.
A further series concerns Mus musculus. As to conditions: acute; oral.
The test system of a further series is Plant. As to conditions: not reported.
In another series the test system is Bibionidae. Conditions: chronic/long-term; duration: 28 days.
The subject of the next series is Folsomia candida. As to conditions: chronic/long-term.
The subject of another series is Hyalella azteca. Conditions: acute; duration: 48 hours; mortality.
Another series deals with Aphidius rhopalosiphi. The series is described as follows: LR50; higher = less toxic. As to conditions: not reported; mortality.
A further series deals with Typhlodromus pyri. Briefly: LR50; higher = less toxic. As to conditions: not reported; mortality.

As to `CC1(C)[C@H](/C=C(\Cl)C(F)(F)F)[C@@H]1C(=O)O[C@@H](C#N)c1cccc(Oc2ccccc2)c1` [lambda-Cyhalothrin], the NOEC in the series on Pimephales promelas came to 0.031 µg/L; in the series on Neomysis kadiakensis it was 0.00022 µg/L; in the series with Anas platyrhynchos (reproductive), 3.3 mg/kg-day; in the series with Tagia sp. (chronic/long-term), 3.12 mg/kg; with Plant, 7.5 g/ha; in the series with Bibionidae, 0.13 µg/L. Moreover, the NOEC in the series on Folsomia candida is 2.73 mg/kg. The LC50 with Leuciscus idus is 0.078 ng/mL (≈ 0.173 nM); with Tagia sp. (acute, mortality) it was > 500 mg/kg; in the series with Hyalella azteca, 0.0019 ng/mL (≈ 0.00422 nM). The NOAEL (as a rule, the highest tested level that showed no adverse finding) in the series on Rattus norvegicus was 0.5 mg/kg-day and 0.25 mg/kg-day; in the series on Canidae it was 0.5 mg/kg-day. Also, the LD50 in the series with Anas platyrhynchos (acute, oral, unspecified) was 3950 mg/kg-day; with Colinus virginianus it was > 530 mg/kg-day; in the series with Apis mellifera (dermal) it was 0.038 µg/piece; in the series on Apis mellifera (oral, unspecified) it was 0.91 µg/piece; in the series with Mus musculus, 20 mg/kg-day. Further, the figures for the LR50 in the series on Aphidius rhopalosiphi and in the series on Typhlodromus pyri were 1.06 g/ha and 0.0037 g/ha, respectively.
